Reference: ChEMBL document CHEMBL1201862, “PubChem BioAssay data set” (2004)
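Briefly, cells in 96-well plates were exposed to five compound concentrations for 48 h, and endpoints were estimated by linear interpolation. At the GI50, growth is halved.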 The source made the active and inactive calls. Rule as the data show it: active = GI50 up to about 1.1 µM and inactive = higher.

Tests used:
Experiment in all cases: NCI tumour cell line growth inhibition, 48 h
DLD-1 = test system: DLD-1
XF498 = test system: XF498
M19-MEL = test system: M19-MEL
LXFL 529 = test system: LXFL 529
DMS-114 = test system: DMS-114
SNB-78 = test system: SNB-78
HOP-18 = test system: HOP-18
DMS-273 = test system: DMS-273
RXF 631 = test system: RXF 631

Row | SMILES | GI50 (DLD-1) | GI50 (XF498) | GI50 (M19-MEL) | GI50 (LXFL 529) | GI50 (DMS-114) | GI50 (SNB-78) | GI50 (HOP-18) | GI50 (DMS-273) | GI50 (RXF 631)
1 | CC1COC(C)(C)P(=O)(c2ccccc2)C1 (configuration not stated) | > 100 µM (inactive) | > 100 µM (inactive) | > 100 µM (inactive) | > 100 µM (inactive) | > 100 µM (inactive) | > 100 µM (inactive) | > 100 µM (inactive) | > 100 µM (inactive) | 
2 | CC(=O)OCc1c2ccccc2c(C)c2c1cc(F)c1ccccc12 | 14.8 µM (inactive) | 16.6 µM (inactive) |  | 29.6 µM (inactive) | 31.5 µM (inactive) | 14.3 µM (inactive) | 24.6 µM (inactive) | 10.4 µM (inactive) | 25.8 µM (inactive)
3 | C=C(c1ccccc1)[C@@]1(O)CCCC[C@H]1NC(c1ccccc1)c1ccccc1 | 14.6 µM (inactive) |  | 15 µM (inactive) | 11.1 µM (inactive) | 9.64 µM (inactive) | 19.7 µM (inactive) | 19.9 µM (inactive) | 13.1 µM (inactive) | 
4 | COc1ccc2c(c1)[n+]([O-])c(C(=O)CC(=O)C(=O)Nc1cccc(C)c1C)c(C)[n+]2[O-] | > 100 µM (inactive) | > 100 µM (inactive) | > 100 µM (inactive) | > 100 µM (inactive) | > 100 µM (inactive) | > 100 µM (inactive) | > 100 µM (inactive) |  | > 100 µM (inactive)
5 | CC(=O)N1CCN(c2ccc(OCC3COC(Cn4ccnc4)(c4ccc(Cl)cc4Cl)O3)cc2)CC1 (configuration not stated) [KETOCONAZOLE] | 33 µM (inactive) |  | 21.4 µM (inactive) | 26.4 µM (inactive) | 16 µM (inactive) |  | > 100 µM (inactive) | 20.5 µM (inactive) | 
6 | Cc1ccc(/C=N\NC2c3cc(Cl)ccc3Nc3nc(O)nc(C)c32)cc1 (configuration not stated) | > 100 µM (inactive) | > 100 µM (inactive) | > 100 µM (inactive) | > 100 µM (inactive) | > 100 µM (inactive) | > 100 µM (inactive) |  | 91.4 µM (inactive) | 
7 | Nc1ccc(C(=O)NN2C(=O)C(Cl)C2c2ccc(O)cc2)cc1 (configuration not stated) | 18.1 µM (inactive) | 14.7 µM (inactive) | 20.1 µM (inactive) | 17.8 µM (inactive) | 13 µM (inactive) | 11.9 µM (inactive) |  | 17.2 µM (inactive) | 
8 | C[C@]12CC[C@H](O)CC1=CC[C@@H]1C2CC[C@]2(C)C(=O)NC(=O)CC12 (some centres not stated) | 44.6 µM (inactive) | > 100 µM (inactive) | > 100 µM (inactive) | 74.3 µM (inactive) | > 100 µM (inactive) | > 100 µM (inactive) | > 100 µM (inactive) | 56.9 µM (inactive) | 76.7 µM (inactive)
9 | COc1ccc(Cn2c(C)nc3c2C(=O)c2ccccc2C3=O)cc1 | 4.67 µM (inactive) | 11.7 µM (inactive) | 7.91 µM (inactive) | 4.31 µM (inactive) |  | 16.1 µM (inactive) |  | 3.32 µM (inactive) | 
10 | Cc1ccc(S(=O)OC23CC4CC(CC(C4)C2)C3)cc1 (configuration not stated) | > 100 µM (inactive) | > 100 µM (inactive) | > 100 µM (inactive) | > 100 µM (inactive) | 78.5 µM (inactive) | > 100 µM (inactive) | > 100 µM (inactive) | > 100 µM (inactive) | 72.8 µM (inactive)
11 | CCOC(=O)COc1ccccc1/C=C1\CCC(CN(C)C)C1=O (configuration not stated) | 3.99 µM (inactive) |  | 3.18 µM (inactive) | 2.45 µM (inactive) | 10.3 µM (inactive) | 21.2 µM (inactive) | 23.2 µM (inactive) | 2.91 µM (inactive) | 17.9 µM (inactive)
12 | CC(=O)C(CN(C(C)C)C(C)C)C(c1ccccc1)c1c(O)c2ccccc2oc1=O (configuration not stated) | > 100 µM (inactive) |  | > 100 µM (inactive) | > 100 µM (inactive) | > 100 µM (inactive) | 97.1 µM (inactive) | > 100 µM (inactive) | > 100 µM (inactive) | > 100 µM (inactive)
13 | COC(=O)C1=C(c2cc(OC)c(OC)c(OC)c2)OC(c2cc(OC)c(OC)c(OC)c2)C1 (configuration not stated) | 21.9 µM (inactive) | 24.4 µM (inactive) | 26.7 µM (inactive) | 22.4 µM (inactive) | 30.7 µM (inactive) | 51.8 µM (inactive) | 19.5 µM (inactive) | 22.5 µM (inactive) | 
14 | COc1cc(/C=C2\[C@@H]3NC(Cc4c(OC)c(C)c(OC)c(OC)c43)C(=O)N2Cc2ccccc2)c(OC)c(C)c1OC | 45.4 µM (inactive) |  | 28.5 µM (inactive) | 37.5 µM (inactive) | 29.8 µM (inactive) |  | 43.8 µM (inactive) | 27.9 µM (inactive) | 53.7 µM (inactive)
15 | COc1c(CC=C(C)C)c(O)c(C(CC(C)C)c2c(O)c(CC=C(C)C)c(O)c(C(C)=O)c2O)c(O)c1C(C)=O (configuration not stated) | 0.38 µM (active) | 0.596 µM (active) | 1.43 µM (inactive) |  | 0.19 µM (active) | 1.7 µM (inactive) | 0.551 µM (active) | 0.333 µM (active) | 0.425 µM (active)
16 | CC(=O)CC(=O)Nc1ccc(OS(N)(=O)=O)cc1 | > 100 µM (inactive) | > 100 µM (inactive) | > 100 µM (inactive) | > 100 µM (inactive) | > 100 µM (inactive) | > 100 µM (inactive) | > 100 µM (inactive) | > 100 µM (inactive) | > 100 µM (inactive)
17 | CC1(C)C=C(N2CCN(C3=CC(C)(C)NC(C)(C)C3)CC2)CC(C)(C)N1 | > 100 µM (inactive) | > 100 µM (inactive) | > 100 µM (inactive) | > 100 µM (inactive) | > 100 µM (inactive) | > 100 µM (inactive) | > 100 µM (inactive) | > 100 µM (inactive) | 
18 | CCOC(=O)/C(=C\c1ccc(OCc2ccccc2)c(OC)c1)C(=O)c1ccccc1 |  | 18.1 µM (inactive) | 22.1 µM (inactive) |  | 19.7 µM (inactive) | 31.3 µM (inactive) |  |  | 
19 | CC(CC[C@@H](C)C1CCC2[C@@H]3CC(O)C4CC(O)[C@@H](O)C[C@]4(C)C3CC[C@@]21C)C(C)(C)C (some centres not stated) | > 100 µM (inactive) | > 100 µM (inactive) | > 100 µM (inactive) | > 100 µM (inactive) | > 100 µM (inactive) | > 100 µM (inactive) | > 100 µM (inactive) | > 100 µM (inactive) | 
20 | [O-][Cl+3]([O-])([O-])O.c1ccc(/N=c2\nc(N3CCOCC3)ss2)cc1 | 14.6 µM (inactive) | 17.9 µM (inactive) | 18 µM (inactive) | 12.2 µM (inactive) | 14.6 µM (inactive) | 22 µM (inactive) | > 100 µM (inactive) | 17.4 µM (inactive) | 17.4 µM (inactive)
21 | CCOC(=O)CCC(=O)C1c2cccc(O)c2C(=O)c2c(O)cc(C)cc21 (configuration not stated) | 1.21 µM (inactive) | 0.211 µM (active) | 0.637 µM (active) | 0.643 µM (active) | 0.296 µM (active) | 0.542 µM (active) | 0.515 µM (active) | 0.785 µM (active) | 0.771 µM (active)
22 | CC(=S)NNC(=O)c1ccncc1 | > 100 µM (inactive) | > 100 µM (inactive) | > 100 µM (inactive) | > 100 µM (inactive) |  | > 100 µM (inactive) | > 100 µM (inactive) | > 100 µM (inactive) | 
23 | Cc1ccc(N2C(=O)/C(=C3\Sc4c(nc(C)n(C)c4=O)N3c3ccccc3)SC2=S)cc1 |  | > 100 µM (inactive) | > 100 µM (inactive) | 68.7 µM (inactive) | 35.6 µM (inactive) | 40.8 µM (inactive) |  | 25.2 µM (inactive) | 
24 | COc1ccc(CCNCc2cccc(OC)c2OC)cc1OC | > 100 µM (inactive) | > 100 µM (inactive) | > 100 µM (inactive) | > 100 µM (inactive) | > 100 µM (inactive) | > 100 µM (inactive) |  | > 100 µM (inactive) | > 100 µM (inactive)
